Residues, ends and D or L forms follow the SMILES beside them.

For one test, the target named is T1, hT1R2/mT1R3 (UniProt Q8TE23+Q925D8).
T1 construct: expressed in transfected cells; host or cells: HEK293E
T1 sequence (Q8TE23 20-839): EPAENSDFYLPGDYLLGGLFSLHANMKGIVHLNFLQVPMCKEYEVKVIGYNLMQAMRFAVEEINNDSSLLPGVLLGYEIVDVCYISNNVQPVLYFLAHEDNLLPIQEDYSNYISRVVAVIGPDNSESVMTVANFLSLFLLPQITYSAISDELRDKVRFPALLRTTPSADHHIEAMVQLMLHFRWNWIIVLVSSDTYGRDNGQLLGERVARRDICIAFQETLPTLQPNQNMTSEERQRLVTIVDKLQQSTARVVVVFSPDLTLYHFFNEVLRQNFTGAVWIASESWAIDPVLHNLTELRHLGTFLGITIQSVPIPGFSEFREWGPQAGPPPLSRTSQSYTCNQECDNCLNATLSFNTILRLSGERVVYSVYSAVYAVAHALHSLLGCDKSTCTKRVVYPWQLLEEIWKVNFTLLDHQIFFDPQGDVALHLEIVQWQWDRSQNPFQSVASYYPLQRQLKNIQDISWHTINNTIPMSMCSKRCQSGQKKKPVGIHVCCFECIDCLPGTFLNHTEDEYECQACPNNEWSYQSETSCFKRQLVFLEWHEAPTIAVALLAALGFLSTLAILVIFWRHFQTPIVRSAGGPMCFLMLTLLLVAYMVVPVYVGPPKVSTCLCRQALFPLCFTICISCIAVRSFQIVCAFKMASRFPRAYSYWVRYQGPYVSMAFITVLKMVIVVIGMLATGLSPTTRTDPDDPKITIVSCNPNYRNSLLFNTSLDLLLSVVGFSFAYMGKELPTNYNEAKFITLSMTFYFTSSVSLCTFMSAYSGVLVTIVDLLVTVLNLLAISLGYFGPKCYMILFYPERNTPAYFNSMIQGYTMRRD
T1 sequence (Q925D8 21-858): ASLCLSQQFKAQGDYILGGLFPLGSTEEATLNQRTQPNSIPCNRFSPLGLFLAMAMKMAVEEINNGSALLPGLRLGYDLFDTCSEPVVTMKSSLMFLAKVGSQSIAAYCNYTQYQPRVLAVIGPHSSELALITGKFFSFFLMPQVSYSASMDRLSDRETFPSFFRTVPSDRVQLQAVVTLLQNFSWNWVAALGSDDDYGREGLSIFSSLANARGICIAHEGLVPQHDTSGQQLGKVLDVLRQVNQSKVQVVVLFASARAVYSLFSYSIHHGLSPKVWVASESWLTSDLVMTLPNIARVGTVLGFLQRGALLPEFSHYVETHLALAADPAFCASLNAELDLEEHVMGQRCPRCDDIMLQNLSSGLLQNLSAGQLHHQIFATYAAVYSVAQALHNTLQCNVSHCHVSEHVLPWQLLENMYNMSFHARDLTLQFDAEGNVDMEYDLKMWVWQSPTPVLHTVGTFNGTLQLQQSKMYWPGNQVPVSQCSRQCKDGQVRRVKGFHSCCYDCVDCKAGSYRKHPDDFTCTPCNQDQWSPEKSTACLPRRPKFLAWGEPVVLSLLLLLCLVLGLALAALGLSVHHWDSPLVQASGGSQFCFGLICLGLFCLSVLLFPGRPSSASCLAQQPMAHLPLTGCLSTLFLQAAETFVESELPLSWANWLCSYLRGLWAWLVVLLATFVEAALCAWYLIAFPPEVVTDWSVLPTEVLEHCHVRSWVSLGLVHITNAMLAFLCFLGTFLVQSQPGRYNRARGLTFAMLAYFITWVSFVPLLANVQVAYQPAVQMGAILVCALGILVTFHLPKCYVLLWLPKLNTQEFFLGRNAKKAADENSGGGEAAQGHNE
Nature of the test: Intracellular calcium assay (ΔF/F, S/N ratio) in HEK293E cells expressing hT1R2 and mT1R3 with Gα15-trans48LD. The format is cell-based, human/mouse. For orientation: A change in cytosolic calcium serves as a functional read-out for many receptors and channels.

In a further test the target is T2, hT1R2/hT1R3 (Homo sapiens, UniProt Q7RTX0+Q8TE23, C757R).
T2 construct: expressed in transfected cells; host or cells: HEK293E
T2 sequence (Q8TE23 20-839): T1 sequence (Q8TE23 20-839)
T2 sequence (Q7RTX0 21-852 C757R): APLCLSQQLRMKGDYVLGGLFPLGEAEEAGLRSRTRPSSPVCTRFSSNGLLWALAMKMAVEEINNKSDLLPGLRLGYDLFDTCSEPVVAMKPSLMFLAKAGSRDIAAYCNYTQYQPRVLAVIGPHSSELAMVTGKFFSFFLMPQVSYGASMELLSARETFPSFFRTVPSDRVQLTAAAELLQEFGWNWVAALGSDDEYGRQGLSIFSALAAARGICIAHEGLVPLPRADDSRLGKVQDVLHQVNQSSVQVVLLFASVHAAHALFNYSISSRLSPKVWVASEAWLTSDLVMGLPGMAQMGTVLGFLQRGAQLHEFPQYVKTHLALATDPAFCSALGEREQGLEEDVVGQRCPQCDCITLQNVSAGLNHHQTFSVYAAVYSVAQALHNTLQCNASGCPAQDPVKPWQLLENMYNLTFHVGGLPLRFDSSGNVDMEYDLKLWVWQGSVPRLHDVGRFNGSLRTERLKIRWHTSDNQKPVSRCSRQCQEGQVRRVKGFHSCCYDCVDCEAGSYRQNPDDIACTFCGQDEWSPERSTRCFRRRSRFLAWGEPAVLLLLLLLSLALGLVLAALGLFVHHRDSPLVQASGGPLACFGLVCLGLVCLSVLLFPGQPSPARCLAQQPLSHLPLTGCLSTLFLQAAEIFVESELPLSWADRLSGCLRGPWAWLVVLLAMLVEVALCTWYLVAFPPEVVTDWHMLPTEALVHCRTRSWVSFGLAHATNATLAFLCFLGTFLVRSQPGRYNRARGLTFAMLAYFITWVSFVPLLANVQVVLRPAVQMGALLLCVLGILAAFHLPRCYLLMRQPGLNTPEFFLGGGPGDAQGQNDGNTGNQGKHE
Nature of the test: Intracellular calcium assay (ΔF/F, S/N ratio) in HEK293E cells expressing hT1R2 and hT1R3 with Gα15-trans48LD.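 Further: fluorescence read over 120 s after adding sweet stimulant across several concentrations, S/N taken as highest over lowest ΔF/F, higher meaning more sensitive detection.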 The format is cell-based.

The mark [1] stands for this setting: Table 3, genes hT2/mT3 (hT1R2, mT1R3).
Setting [2] is: Table 4, genes hT2/mT3 (hT1R2, mT1R3).
The mark [3] stands for this setting: Table 3, genes hT2/hT3 (hT1R2, hT1R3), max ΔF/F over min ΔF/F across concentrations.
The mark [4] stands for this setting: Table 4, genes hT2/hT3 (hT1R2, hT1R3).
The mark [5] stands for this setting: Table 5, genes hT2/hT3 (hT1R2, hT1R3).
Setting [6] is: Table 6, genes hT2/hT3 (hT1R2, hT1Rm3).

Protocol for hT1R2/hT1R3: The HEK293E cells maintained by using the DMEM/Ham's F-12 medium (Nakarai Tesque) containing 10% fetal bovine serum ([sequence]) and 1% Pen Strep (GIBCO) were washed with D-PBS(−) (Nakarai Tesque), and collected from the flask by using 0.25% Trypsin EDTA (GIBCO). The cells were centrifuged (1,200 rpm, 3 minutes), and after the supernatant was removed, suspended in 5% FBS DMEM/Ham's F-12 at a density of 0.75×10^7 cell/ml. This suspension (10 ml) was put into a 150 cm^3 flask (IWAKI), and culture was performed overnight (37° C., 5% CO2).
After the gene transfer, the cells were washed with D-PBS(−), then removed from the flask by using 0.25% Trypsin EDTA (GIBCO), and collected. […] This cell suspension was put into wells of D-Lysine coat 96-well plate (BD bioscience) in such a volume that the cell count is 7.0×10^4 cells/well, and the cells were cultured overnight.
After the culture, all the medium of the 96 wells were discarded. […] After the staining, 50 μl of a solution of stimulant (sweet taste substance) prepared with the assay buffer was added to each well, and the fluorescence value was measured for 120 seconds after the stimulation by using FDSSμEELL (Hamamatsu Photonics). […] The measurement and analysis of the fluorescence value was performed by using the software attached to FDSSμEELL (FDSS7000EX), and ΔF/F value was calculated in accordance with the following equation, and used for the evaluation. ΔF/F=(Maximum fluorescence value after stimulation−Minimum fluorescence value after stimulation)/(Fluorescence value before stimulation)
Furthermore, by using the ΔF/F values obtained when each sweet taste substance was added, the S/N ratio was calculated. Specifically, the S/N value was calculated by using the minimum value of ΔF/F obtained when each substance was added at various concentrations as noise (N) value, and the similarly obtained maximum value of ΔF/F as the signal (S) value, and used as an index for sensitivity of the measurement of the activity of each receptor.
Protocol for hT1R2/mT1R3: The HEK293E cells maintained by using the DMEM/Ham's F-12 medium (Nakarai Tesque) containing 10% fetal bovine serum ([sequence]) and 1% Pen Strep (GIBCO) were washed with D-PBS(−) (Nakarai Tesque), and collected from the flask by using 0.25% Trypsin EDTA (GIBCO). The cells were centrifuged (1,200 rpm, 3 minutes), and after the supernatant was removed, suspended in 5% FBS DMEM/Ham's F-12 at a density of 0.75×10^7 cell/ml. This suspension (10 ml) was put into a 150 cm^3 flask (IWAKI), and culture was performed overnight (37° C., 5% CO2). On the next day, the medium was exchanged with Opti-MEM (30 ml, Invitrogen, Life Technologies), a sweet taste receptor gene mixture (Gα15-trans48LD gene, various kinds of T1R2 chimeric genes, and various kinds of T1R3 chimeric genes, 63.8 μg in total) prepared by using Opti-MEM and Lipofectamin 2000 (Invitrogen, Life Technologies) was slowly added to the cell suspension, and incubation was performed (37° C., 5% CO2) for 6 hours to attain gene transfer.
After the gene transfer, the cells were washed with D-PBS(−), then removed from the flask by using 0.25% Trypsin EDTA (GIBCO), and collected. After the cell number was counted, the cells were suspended in the 5% FBS DMEM medium (2.78 mM glucose, GIBCO) at a density of 0.5×10^6 cell/ml. This cell suspension was put into wells of D-Lysine coat 96-well plate (BD bioscience) in such a volume that the cell count is 7.0×10^4 cells/well, and the cells were cultured overnight.
After the culture, all the medium of the 96 wells were discarded. 200 μl of the staining solution for measurement of intracellular calcium ion′ Calcium Assay Kit Express (Molecular Device), diluted 80 times with an assay buffer (20 mM HEPES, 146 mM NaCl, 1 mM MgSO4, 1.39 mM glucose, 1 mM CaC12, 2.5 mM Probenecid, 0.05% bovine serum albumin) was added to each well, and the plate was left standing at 37° C. for 30 minutes and at room temperature for 45 minutes to perform staining. After the staining, 50 μl of a solution of stimulant (sweet taste substance) prepared with the assay buffer was added to each well, and the fluorescence value was measured for 120 seconds after the stimulation by using FDSSμEELL (Hamamatsu Photonics). By measuring the fluorescence value (Ex. 480 nm, Em. 540 nm) before and after the stimulation, the change of the intracellular free calcium ion concentration caused by addition of the stimulant via a sweet taste receptor was quantitatively investigated. The measurement and analysis of the fluorescence value was performed by using the software attached to FDSSμEELL (FDSS7000EX), and ΔF/F value was calculated in accordance with the following equation, and used for the evaluation. ΔF/F=(Maximum fluorescence value after stimulation−Minimum fluorescence value after stimulation)/(Fluorescence value before stimulation)
Furthermore, by using the ΔF/F values obtained when each sweet taste substance was added, the S/N ratio was calculated. Specifically, the S/N value was calculated by using the minimum value of ΔF/F obtained when each substance was added at various concentrations as noise (N) value, and the similarly obtained maximum value of ΔF/F as the signal (S) value, and used as an index for sensitivity of the measurement of the activity of each receptor. That is, a higher S/N value means a higher sensitivity for detection of an interaction of a sweet taste receptor and a test substance, which makes it easier to detect stimulation with a sweet taste substance or sweet taste-regulating substance of a lower concentration.

Take `CC1=CC(=O)NS(=O)(=O)O1` [Acesulfame K, acesulfame potassium]: the S/N came out at 2.4 at hT1R2/mT1R3 (setting [1]); 2.4 at hT1R2/mT1R3 (setting [2]); 1.9 at hT1R2/hT1R3 (setting [3]); 1.9 on hT1R2/hT1R3 (setting [4]); 1.9 at hT1R2/hT1R3 (setting [5]); 1.9 at hT1R2/hT1R3 (setting [6]).
`COC(=O)[C@H](Cc1ccccc1)NC(=O)[C@H](CC(=O)O)NCCCc1ccc(OC)c(O)c1` [Advantame, advantame]: the S/N turned out to be 4.6 at hT1R2/mT1R3 (setting [1]); 4.6 on hT1R2/mT1R3 (setting [2]); 3.2 at hT1R2/hT1R3 (setting [3]); 3.2 on hT1R2/hT1R3 (setting [4]); 3.2 on hT1R2/hT1R3 (setting [5]); 3.2 at hT1R2/hT1R3 (setting [6]).
Turning to `COC(=O)[C@H](Cc1ccccc1)NC(=O)[C@@H](N)CC(=O)O` [Aspartame, aspartame] (HELM PEPTIDE1{D.F.[CO[*:1]]}$$$$V2.0), the S/N is 2.3 on hT1R2/mT1R3 (setting [1]); 2.3 at hT1R2/mT1R3 (setting [2]); 1.6 on hT1R2/hT1R3 (setting [3]); 1.6 at hT1R2/hT1R3 (setting [4]); 1.6 on hT1R2/hT1R3 (setting [5]); 1.6 at hT1R2/hT1R3 (setting [6]).
In the case of `COc1ccc(CCC(=O)c2c(O)cc(O[C@@H]3O[C@H](CO)[C@@H](O)[C@H](O)[C@H]3O[C@@H]3O[C@@H](C)[C@H](O)[C@@H](O)[C@H]3O)cc2O)cc1O` [NHDC, neohesperidin dihydrochalcone], the S/N at hT1R2/hT1R3 (setting [5]) and on hT1R2/hT1R3 (setting [6]) was 2.0 each time.
Turning to `COC(=O)[C@H](Cc1ccccc1)NC(=O)[C@H](CC(=O)O)NCCC(C)(C)C` [Neotame, neotame], the S/N at hT1R2/mT1R3 (setting [1]) came out at 3.4; at hT1R2/mT1R3 (setting [2]) it was 3.4; on hT1R2/hT1R3 (setting [3]), 2.9; on hT1R2/hT1R3 (setting [4]), 2.9; on hT1R2/hT1R3 (setting [5]), 2.9; on hT1R2/hT1R3 (setting [6]) it was 2.9.
Take `C[C@H](NC(=Nc1ccc(C#N)cc1)NCC(=O)O)c1ccccc1` [SC-45647, [3-[(S)-1-phenylethyl]-2-(4-cyanophenyl)guanidino]acetic acid]: the S/N on hT1R2/mT1R3 (setting [1]) is given as 3.9; on hT1R2/mT1R3 (setting [2]), 3.9; at hT1R2/hT1R3 (setting [3]), 3.0; at hT1R2/hT1R3 (setting [4]), 3.0; at hT1R2/hT1R3 (setting [5]), 3.0; on hT1R2/hT1R3 (setting [6]), 3.0.
With `O=C1NS(=O)(=O)c2ccccc21.[Na]` [Saccharin Na, sodium saccharin], the S/N came out at 2.8 on hT1R2/mT1R3 (setting [1]); 2.8 on hT1R2/mT1R3 (setting [2]); 2.5 on hT1R2/hT1R3 (setting [3]); 2.5 at hT1R2/hT1R3 (setting [4]); 2.5 on hT1R2/hT1R3 (setting [5]); 2.5 at hT1R2/hT1R3 (setting [6]).
Consider `OC[C@H]1O[C@H](O[C@]2(CCl)O[C@H](CCl)[C@@H](O)[C@@H]2O)[C@H](O)[C@@H](O)[C@H]1Cl` [Sucralose, sucralose], for which the S/N is reported as 4.0 at hT1R2/mT1R3 (setting [1]); 4.0 on hT1R2/mT1R3 (setting [2]); 3.3 at hT1R2/hT1R3 (setting [3]); 3.3 on hT1R2/hT1R3 (setting [4]); 3.3 at hT1R2/hT1R3 (setting [5]); 3.3 on hT1R2/hT1R3 (setting [6]).
As to `OC[C@H]1O[C@@](CO)(O[C@H]2O[C@H](CO)[C@@H](O)[C@H](O)[C@H]2O)[C@@H](O)[C@@H]1O` [Sucrose, sucrose], the S/N was found to be 2.4 on hT1R2/mT1R3 (setting [1]); 2.4 on hT1R2/mT1R3 (setting [2]); 1.9 on hT1R2/hT1R3 (setting [3]); 1.9 at hT1R2/hT1R3 (setting [4]); 1.9 at hT1R2/hT1R3 (setting [5]); 1.9 on hT1R2/hT1R3 (setting [6]).

(Values after US9341616B2, “Sweet taste receptor chimeric proteins and use thereof” (AJINOMOTO CO., INC., priority 2014, dated 2016).)
